Experimental data from patent US20040121474A1, “Detection and evaluation of chemically-mediated and ligand-mediated t-cell activation using optophoretic analysis” (Genoptix, Inc, priority 2002, published 2004).

Experiments:
U937 cells = assay: Escape velocity, effect of camptothecin on U937 cells; format: cell-based; details: camptothecin-treated U937 cells
Protocol: The objective of this experiment is to test the effects of camptothecin on the escape velocities of U937 cells. Camptothecin inhibits DNA topoisomerase I and induces apoptosis. A control and three concentrations of camptothecin were tested: […]. After adding the camptothecin, the flasks are incubated at 37° C. 5% CO2.
At the timepoints of 4 hours and 6 hours, 200 μl of cells are spun for 5 minutes at 5000 rpm. The cells are then resuspended in […] PBS/1% BSA and […] trypan blue.
Optophoretic techniques have been investigated for their potential to detect the early onset of apoptosis in mammalian cells. U.S. patent application Ser. No. 10,240,611, for example, discloses multiple experiments in which U937 cells were treated with camptothecin and subsequently monitored Optophoretically using measured escape velocities. In one experiment, the escape velocity of the camptothecin-treated cells were measured at 4 and 6 hours after treatment. Noticeable changes in escape velocity were seen as early as 4 hours after treatment (see, e.g., FIG. 34). In that experiment, U937 cells were treated with 4 μg/ml of camptothecin and resuspended in PBS/1% BSA. Escape velocity measurements were taken after 4 and 6 hours. Table 18, reproduced below, includes the results of the escape velocity measurements for the test cells as well as the controls.

CEM/C2 = CEM/C2 cell line obtained from ATCC; cited from earlier work

CC[C@@]1(O)C(=O)OCc2c1cc1n(c2=O)Cc2cc3ccccc3nc2-1 [Camptothecin]
time after treatment at which noticeable changes in escape velocity were seen (U937 cells): ≤ 4 h | less sensitive than parental cell line CCRF-CEM (CEM/C2): 970 fold
